# Reference: patent US12264158B2, “Protein kinase MKK4 inhibitors for promoting liver regeneration or reducing or preventing hepatocyte death” (HEPAREGENIX GMBH, priority 2018, dated 2025)
# Key:
# Conditions in all cases: concentration of 100 nM
# BRaf = BRaf (Homo sapiens, UniProt P15056); assay: KINOMEscan competition binding assay, selectivity against off-target BRaf
# Procedure: (§1) The assay was performed by combining three components: DNA-tagged kinase; immobilized ligand; and a test compound. The ability of the test compound to compete with the immobilized ligand was measured via quantitative PCR of the DNA tag. The technology is described in detail in Fabian, M. A. et al. A small molecule-kinase interaction map for clinical kinase inhibitors. Nat. […] M. W. et al. A quantitative analysis of kinase inhibitor selectivity, Nat.
# (§2) The test compounds were provided as 10 mM stock solutions. The test solutions at indicated final concentrations were prepared at DiscoverX.
# MKK4 = target: T1, MKK4 (Homo sapiens, UniProt P45985); assay: KINOMEscan competition binding assay, MKK4 potency
# T1 construct: S84/D399; host or cells: HEK-293
# T1 sequence (P45985 84-399): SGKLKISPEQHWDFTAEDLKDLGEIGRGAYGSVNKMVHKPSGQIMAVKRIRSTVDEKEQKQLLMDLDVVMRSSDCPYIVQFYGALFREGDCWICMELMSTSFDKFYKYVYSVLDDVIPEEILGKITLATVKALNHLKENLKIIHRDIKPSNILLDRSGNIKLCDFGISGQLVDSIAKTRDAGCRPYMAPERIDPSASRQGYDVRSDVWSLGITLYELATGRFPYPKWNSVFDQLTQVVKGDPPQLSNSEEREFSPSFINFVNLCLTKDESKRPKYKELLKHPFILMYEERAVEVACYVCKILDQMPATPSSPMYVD
# Procedure: as §1
# (§3) For investigation of the affinity to MKK4, MKK7 and JNK1, the kinases were produced in HEK-293 cells and subsequently tagged with DNA for qPCR detection. […] The liganded beads were blocked with excess biotin and washed with blocking buffer (SEABLOCK™ (Pierce), 1% BSA, 0.05% TWEEN®20, 1 mM DTT) to remove unbound ligand and to reduce nonspecific binding. […] All reactions were performed in polystyrene 96-well plates in a final volume of 0.135 mL. […] The kinase concentration in the eluates was measured by qPCR.
# as §2
# MKK7 = target: T2, MKK7 (Homo sapiens, UniProt O14733); assay: KINOMEscan competition binding assay, selectivity against off-target MKK7
# T2 construct: M1/R419; host or cells: HEK-293
# T2 sequence (O14733 1-419): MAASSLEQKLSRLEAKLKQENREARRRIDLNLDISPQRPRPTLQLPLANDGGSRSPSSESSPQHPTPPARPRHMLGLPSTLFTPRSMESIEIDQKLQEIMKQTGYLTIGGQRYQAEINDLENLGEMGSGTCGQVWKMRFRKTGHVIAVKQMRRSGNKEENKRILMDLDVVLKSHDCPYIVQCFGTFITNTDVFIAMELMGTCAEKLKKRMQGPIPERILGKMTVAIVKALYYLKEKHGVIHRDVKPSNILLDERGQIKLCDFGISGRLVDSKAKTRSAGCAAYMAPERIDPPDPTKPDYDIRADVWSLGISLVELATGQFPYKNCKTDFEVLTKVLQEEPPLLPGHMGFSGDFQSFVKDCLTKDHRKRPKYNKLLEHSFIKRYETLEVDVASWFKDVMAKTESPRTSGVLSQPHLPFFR
# Procedure: as §1, §3, §2
# JNK1 = target: T3, JNK1 (Homo sapiens, UniProt P45983); assay: KINOMEscan competition binding assay, selectivity against off-target JNK1
# T3 construct: M1/Q384; host or cells: HEK-293
# Procedure: as §1, §3, §2
# T3 sequence (P45983 1-384 isoform P45983-2): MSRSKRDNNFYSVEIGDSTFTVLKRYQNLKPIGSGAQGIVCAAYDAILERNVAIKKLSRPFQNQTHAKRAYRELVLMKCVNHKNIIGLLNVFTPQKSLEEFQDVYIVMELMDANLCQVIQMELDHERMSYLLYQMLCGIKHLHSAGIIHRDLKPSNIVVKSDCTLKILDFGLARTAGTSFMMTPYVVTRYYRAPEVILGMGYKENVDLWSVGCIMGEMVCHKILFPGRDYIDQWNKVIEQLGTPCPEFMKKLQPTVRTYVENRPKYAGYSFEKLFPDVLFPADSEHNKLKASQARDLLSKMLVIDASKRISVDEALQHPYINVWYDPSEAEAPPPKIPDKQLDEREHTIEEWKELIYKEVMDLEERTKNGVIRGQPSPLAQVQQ
# Chain of BRaf (P15056 whole entry): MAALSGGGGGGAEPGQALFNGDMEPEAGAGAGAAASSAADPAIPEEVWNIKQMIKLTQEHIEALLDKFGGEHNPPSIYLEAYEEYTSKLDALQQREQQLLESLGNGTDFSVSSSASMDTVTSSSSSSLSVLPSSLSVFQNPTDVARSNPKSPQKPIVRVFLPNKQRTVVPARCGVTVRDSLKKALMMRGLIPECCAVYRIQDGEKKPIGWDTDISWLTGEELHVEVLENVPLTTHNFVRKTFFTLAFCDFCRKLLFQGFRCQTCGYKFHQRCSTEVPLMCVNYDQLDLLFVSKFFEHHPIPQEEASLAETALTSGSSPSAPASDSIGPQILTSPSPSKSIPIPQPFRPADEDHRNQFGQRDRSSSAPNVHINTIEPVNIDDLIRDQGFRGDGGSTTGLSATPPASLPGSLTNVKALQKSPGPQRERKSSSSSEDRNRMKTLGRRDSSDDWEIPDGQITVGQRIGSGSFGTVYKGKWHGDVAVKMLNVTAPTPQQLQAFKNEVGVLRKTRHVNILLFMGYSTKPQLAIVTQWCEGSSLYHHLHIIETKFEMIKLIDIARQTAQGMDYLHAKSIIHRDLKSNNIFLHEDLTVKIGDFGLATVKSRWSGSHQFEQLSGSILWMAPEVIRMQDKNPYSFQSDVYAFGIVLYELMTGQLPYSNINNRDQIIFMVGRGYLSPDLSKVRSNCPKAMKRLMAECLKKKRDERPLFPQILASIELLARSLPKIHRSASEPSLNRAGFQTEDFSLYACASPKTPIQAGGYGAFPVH
"Selectivity vs. BRaf, ratio PoC(BRaf)/PoC(MKK4) (BRaf)","MKK4, residual percent of control binding (PoC) (MKK4)","Selectivity vs. MKK7, ratio PoC(MKK7)/PoC(MKK4) (MKK7)","Selectivity vs. JNK1, ratio PoC(JNK1)/PoC(MKK4) (JNK1)",Compound
O (PoC(BRaf)/PoC(MKK4) < 3),O (PoC ≥ 30),O (PoC(MKK7)/PoC(MKK4) < 3),O (PoC(JNK1)/PoC(MKK4) < 3),"CCCS(=O)(=O)Nc1ccc(F)c(Sc2n[nH]c3ncc(-c4ccc(Cl)cc4)cc23)c1F [Example 46, N-(3-((5-(4-chlorophenyl)-1H-pyrazolo[3,4-b]pyridin-3-yl)thio)-2,4-difluorophenyl)propane-1-sulfonamide]"
O (PoC(BRaf)/PoC(MKK4) < 3),O (PoC ≥ 30),O (PoC(MKK7)/PoC(MKK4) < 3),O (PoC(JNK1)/PoC(MKK4) < 3),"CCCS(=O)(=O)Nc1ccc(F)c(NC(=O)c2n[nH]c3ncc(-c4ccc(Cl)cc4)cc23)c1F [Example 45, 5-(4-chlorophenyl)-N-(2,6-difluoro-3-(propylsulfonamido)phenyl)-1H-pyrazolo[3,4-b]pyridine-3-carboxamide]"
O (PoC(BRaf)/PoC(MKK4) < 3),+ (10 ≤ PoC < 30),+ (10 > PoC(MKK7)/PoC(MKK4) ≥ 3),+ (10 > PoC(JNK1)/PoC(MKK4) ≥ 3),"CCCS(=O)(=O)Nc1ccc(F)c(C(=O)c2n[nH]c3ncc(-c4cccc(C)c4)cc23)c1F [Example 29, N-(2,4-difluoro-3-(5-m-tolyl-1H-pyrazolo[3,4-b]pyridine-3-carbonyl)phenyl)propane-1-sulfonamide]"
O (PoC(BRaf)/PoC(MKK4) < 3),O (PoC ≥ 30),O (PoC(MKK7)/PoC(MKK4) < 3),O (PoC(JNK1)/PoC(MKK4) < 3),"CCCS(=O)(=O)Nc1ccc(F)c(C(=O)c2n[nH]c3ncc(-c4ccc(Cl)c(Cl)c4)cc23)c1F [Example 33, N-(3-(5-(3,4-dichloro-phenyl)-1H-pyrazolo[3,4-b]pyridine-3-carbonyl)-2,4-difluoro-phenyl)-propane-1-sulfon-amide]"
O (PoC(BRaf)/PoC(MKK4) < 3),O (PoC ≥ 30),O (PoC(MKK7)/PoC(MKK4) < 3),O (PoC(JNK1)/PoC(MKK4) < 3),"CCCS(=O)(=O)Nc1ccc(F)c(C(=O)c2n[nH]c3ncc(-c4cccc(Cl)c4)cc23)c1F [Example 7, N-(3-(5-(3-chlorophenyl)-1H-pyrazolo[3,4-b]pyridine-3-carbonyl)-2,4-difluorophenyl)-propane-1-sulfonamide]"
O (PoC(BRaf)/PoC(MKK4) < 3),O (PoC ≥ 30),O (PoC(MKK7)/PoC(MKK4) < 3),O (PoC(JNK1)/PoC(MKK4) < 3),"CCCS(=O)(=O)Nc1ccc(F)c(C(=O)c2n[nH]c3ncc(-c4cccc(C(F)(F)F)c4)cc23)c1F [Example 30, N-(2,4-difluoro-3-(5-(3-(trifluoromethyl)phenyl)-1H-pyrazolo[3,4-b]pyridine-3-carbonyl)phenyl)propane-1-sulfonamide]"
O (PoC(BRaf)/PoC(MKK4) < 3),++ (1 ≤ PoC < 10),++ (30 > PoC(MKK7)/PoC(MKK4) ≥ 10),++ (30 > PoC(JNK1)/PoC(MKK4) ≥ 10),"CCCS(=O)(=O)Nc1ccc(F)c(C(=O)c2n[nH]c3ncc(-c4ccc(C)cc4)cc23)c1F [Example 20, N-(2,4-difluoro-3-(5-p-tolyl-1H-pyrazolo[3,4-b]pyridine-3-carbonyl)phenyl)propane-1-sulfonamide]"
O (PoC(BRaf)/PoC(MKK4) < 3),+ (10 ≤ PoC < 30),+ (10 > PoC(MKK7)/PoC(MKK4) ≥ 3),+ (10 > PoC(JNK1)/PoC(MKK4) ≥ 3),"CCCS(=O)(=O)Nc1ccc(F)c(C(=O)c2n[nH]c3ncc(-c4ccc(C)c(C)c4)cc23)c1F [Example 12, N-(3-(5-(3,4-dimethyl-phenyl)-1H-pyrazolo[3,4-b]pyridine-3-carbonyl)-2,4-difluorophenyl)-propane-1-sulfonamide]"
O (PoC(BRaf)/PoC(MKK4) < 3),O (PoC ≥ 30),O (PoC(MKK7)/PoC(MKK4) < 3),O (PoC(JNK1)/PoC(MKK4) < 3),"CCCS(=O)(=O)Nc1ccc(F)c(C(=O)c2n[nH]c3ncc(-c4cc(Cl)cc(Cl)c4)cc23)c1F [Example 22, N-(3-(5-(3,5-dichloro-phenyl)-1H-pyrazolo[3,4-b]pyridine-3-carbonyl)-2,4-difluoro-phenyl)propane-1-sulfon-amide]"
O (PoC(BRaf)/PoC(MKK4) < 3),+ (10 ≤ PoC < 30),+ (10 > PoC(MKK7)/PoC(MKK4) ≥ 3),+ (10 > PoC(JNK1)/PoC(MKK4) ≥ 3),"CCCS(=O)(=O)Nc1ccc(F)c(C(=O)c2n[nH]c3ncc(-c4cccc(N(C)C)c4)cc23)c1F [Example 28, N-(3-(5-(3-(dimethyl-amino)phenyl)-1H-pyrazo-lo[3,4-b]pyridine-3-carbonyl)-2,4-difluoro-phenyl)propane-1-sulfonamide]"
O (PoC(BRaf)/PoC(MKK4) < 3),O (PoC ≥ 30),O (PoC(MKK7)/PoC(MKK4) < 3),O (PoC(JNK1)/PoC(MKK4) < 3),"CCCS(=O)(=O)Nc1ccc(F)c(Cc2n[nH]c3ncc(-c4ccc(Cl)cc4)cc23)c1F [Example 50, N-(3-((5-(4-chlorophenyl)-1H-pyrazolo[3,4-b]pyridin-3-yl)methyl)-2,4-difluorophenyl)propane-1-sulfonamide]"
O (PoC(BRaf)/PoC(MKK4) < 3),O (PoC ≥ 30),O (PoC(MKK7)/PoC(MKK4) < 3),O (PoC(JNK1)/PoC(MKK4) < 3),"CCCS(=O)(=O)Nc1ccc(F)c(C(=O)c2n[nH]c3ncc(-c4ccc(C(C)(C)C)cc4)cc23)c1F [Example 10, N-(3-(5-(4-tert-butylphenyl)-1H-pyrazolo[3,4-b]pyridine-3-carbonyl)-2,4-difluoro-phenyl)propane-1-sulfon-amide]"
O (PoC(BRaf)/PoC(MKK4) < 3),O (PoC ≥ 30),O (PoC(MKK7)/PoC(MKK4) < 3),O (PoC(JNK1)/PoC(MKK4) < 3),"CCCS(=O)(=O)Nc1ccc(F)c(S(=O)(=O)c2n[nH]c3ncc(-c4ccc(Cl)cc4)cc23)c1F [Example 48, N-(3-((5-(4-chlorophenyl)-1H-pyrazolo[3,4-b]pyridin-3-yl)sulfonyl)-2,4-difluorophenyl)propane-1-sulfonamide]"
+ (10 > PoC(BRaf)/PoC(MKK4) ≥ 3),+ (10 ≤ PoC < 30),+ (10 > PoC(MKK7)/PoC(MKK4) ≥ 3),+ (10 > PoC(JNK1)/PoC(MKK4) ≥ 3),"CCCS(=O)(=O)Nc1ccc(F)c(C(=O)c2n[nH]c3ncc(-c4ccc(Cl)cc4Cl)cc23)c1F [Example 35, N-(3-(5-(2,4-dichlorophenyl)-1H-pyrazolo[3,4-b]pyridine-3-carbonyl)-2,4-difluoro-phenyl)propane-1-sulfonamide]"
+ (10 > PoC(BRaf)/PoC(MKK4) ≥ 3),+ (10 ≤ PoC < 30),+ (10 > PoC(MKK7)/PoC(MKK4) ≥ 3),+ (10 > PoC(JNK1)/PoC(MKK4) ≥ 3),"CCCCS(=O)(=O)Nc1cccc(C(=O)c2n[nH]c3ncc(-c4ccc5c(c4)OCCO5)cc23)c1F [Example 43, N-(3-(5-(2,3-dihydro-benzo-[b][1,4]dioxin-6-yl)-1H-pyrazolo[3,4-b]-pyridine-3-carbonyl)-2-fluorophenyl)-butane-1-sulfonamide]"
